Measurements reported in patent US20260146045A1, “COMPOSITIONS AND USES THEREOF” (Solve Therapeutics, Inc., priority 2022, published 2026).

The compounds below were run on SKBR3, a breast cancer cell line (assay: in vitro cytotoxicity assay (CellTiter-Glo viability)). Conditions: Homo sapiens, SK-BR-3, SKBR3 cells, 72 hours at 37° C., luminometer.
Assay type: cell-based
Description: The ability of compounds to inhibit cell growth was measured using in vitro cytotoxicity assay.
Cells were cultured in log phase growth and split into 96-well plates. Each cell-line was plated at a slightly different concentration but ranged from 5×10^3 to 50x 10+ cells/well. Cells, in duplicate, were incubated with 3-fold serial dilution of a particular immunoconjugate starting at 3000 or 1000 nanomolar (3000, 1000, 333, 111, 37, 12.3, 4.1, 1.37, 0.46, 0.15 nanomolar) for 72 hours at 37° C. and 5% CO2. After treatment the cells were incubated with an equal volume of CellTiter-Glo® reagent (Promega Inc.) for 15 minutes at room temperature, and viability was determined by a luminometer.
With CC[C@@]1(O)C(=O)OCc2c1cc1n(c2=O)Cc2c-1nc1cc(F)ccc1c2CNC(=O)CN [Compound 7] the EC50 was 89 nM.
In the case of CC[C@@]1(O)C(=O)OCc2c1cc1n(c2=O)Cc2c-1nc1cc(F)ccc1c2CNC(=O)CO [Compound 8], the EC50 is reported as 5.6 nM.
CC[C@@]1(O)C(=O)OCc2c1cc1n(c2=O)Cc2c-1nc1ccc(O)cc1c2CNC(=O)CN [Compound 13] gave an EC50 of 1050 nM.
CC[C@@]1(O)C(=O)OCc2c1cc1n(c2=O)Cc2c-1nc1ccc(O)cc1c2CNC(=O)CO [Compound 14] showed an EC50 of 516 nM.
